From article PMC12543186, “Discovery of C-12 dithiocarbamate andrographolide analogue as a novel antioxidant and α-glucosidase inhibitors: In vitro and in silico studies” (PLOS One, 2025)
Several values for one entry are separate records, joined by “and”; a condition that tells them apart may be missing. Equal values may be shown once. Read-outs that look alike come from different tables or passages of the source.

How the values were obtained:
[1] = biological target: T1, α-glucosidase from Saccharomyces cerevisiae (Saccharomyces cerevisiae, UniProt P38158); assay: α-glucosidase inhibition activity (p-NPG substrate); format: biochemical; details: for α-glucosidase inhibition (%), Mean: 2000 μM; for IC50: concentration range up to 2000 μM
Procedure: An in vitro α-glucosidase inhibitory assay is commonly used to evaluate the inhibitory effects of various compounds on the enzyme α-glucosidase, which is involved in carbohydrate digestion. Inhibiting this enzyme results in slower glucose absorption, which can be beneficial for managing postprandial blood sugar levels in diabetic conditions. This assay was modified from the methods described by Yusuf et al.. The procedure involved mixing 25 μL of the sample, 150 μL of phosphate buffer saline (PBS) pH 7.4, and 75 μL of 10 mM p-NPG. The mixture was incubated at 37 °C for 10 min. Next, 50 μL of α-glucosidase enzyme from Saccharomyces cerevisiae at a concentration of 0.1 U/mL was added, then incubated at 37 °C for 10 min. To terminate the reaction, […] of 0.1 M sodium carbonate (Na2CO3) was added to the mixture. The absorbance was measured using a microplate reader. The percentage of α-glucosidase inhibition was calculated as follows:
α−glucosidase inhibition(%)=(1–{A−B/C−D})×100
Where A was the absorbance of the sample with α-glucosidase enzyme, B was the absorbance of the sample, C was the absorbance of vehicle with α-glucosidase enzyme, and D was the absorbance of the vehicle (blank).

[2] = DPPH radical scavenging activity; details: for % Inhibition (DPPH), replicate 1 / % DPPH Inhibition, Mean / % Inhibition (DPPH), replicate 2 / % Inhibition (DPPH), replicate 3: 500 μM; for % Inhibition (DPPH), replicate 1: first replicate column; for % DPPH Inhibition, Mean: mean of n = 3; for % Inhibition (DPPH), replicate 2: second replicate column; for % Inhibition (DPPH), replicate 3: third replicate column; for IC50: 200 μM DPPH solution
Procedure: The DPPH radical scavenging activity was conducted to thoroughly evaluate the antioxidant potential of andrographolide and its analogues. We modified the assay employing the Sekhon-Loodu and Rupasinghe methods. A DPPH solution was prepared in absolute ethanol, with a concentration of 200 μM. Next, 100 μL of DPPH solution was mixed with 100 μL of the sample in a 96-well plate. The mixture was then incubated for 30 minutes at room temperature. Following incubation, we measured the absorbance at 517 nm using a microplate reader. We tested the antioxidant properties of the compounds at a concentration of 500 μM to detect the weak-to-moderate antioxidants while addressing solubility limitations and minimizing assay artefacts, consistent with previous research. The DPPH radical scavenging activity was precisely expressed as a percentage of DPPH inhibition (% DPPH Inhibition). We selected candidates based on their higher inhibitory activity and prepared various concentrations of these candidates for testing. α-tocopherol, also known as vitamin E, was employed as a positive control. The % DPPH Inhibition was calculated as follows:
%DPPH Inhibition=(1–{A/B})×100
Where A was the absorbance of the DPPH with sample, and B was the absorbance of the DPPH with vehicle (blank).

[3] = biological target: T1, α-glucosidase from Saccharomyces cerevisiae; assay: Surface plasmon resonance, steady-state affinity; format: binding
Procedure: All experiments were conducted using a Biacore X100 instrument at 25 °C with a running buffer of 1X PBS-P+ (10 mM phosphate buffer pH 7.4, 2.7 mM KCl, 137 mM NaCl, 0.05% Tween 20) supplemented with 5% DMSO. Compounds were initially dissolved in DMSO to a final concentration of 14 mM. The stock solution was then diluted to 700 μM in 1.05X PBS-P+ to prepare a compound solution containing 1X PBS-P+ with 5% DMSO. This compound solution was utilized to prepare the required concentrations for injections into the Biacore system. α-glucosidase from Saccharomyces cerevisiae was immobilized onto a CM5 chip following standard amine coupling procedures: the CM5 chip, containing channel 1 and 2, was activated with an injection of NHS/EDC mixture with a contact time of 540 s at a flow rate of 10 µL/min. This was followed by multiple injections of α-glucosidase dissolved in 10 mM sodium acetate pH 4.0 (50 µg/mL) onto channel 2, also with a contact time of 540 s at a flow rate of 10 µL/min. Both channels were inactivated by an injection of 1M ethanolamine at a flow rate of 10 µL/min for 540 s. An immobilization level of 3300 RU of α-glucosidase was achieved.
Multi-cycle affinity studies were conducted with a 100 s association phase and a 60 s dissociation phase, using a flow rate of 30 µL/min. Compounds were injected onto the chip at increasing concentrations of 7, 21, 70, 210, and 490 μM. Binding measurements were taken after reference subtraction of channel 1 (no immobilized α-glucosidase) and after subtracting the results from a blank injection with zero analyte concentration. All data evaluation was performed with Biacore X100 evaluation software (version 2.0).

[4] = Ferric reducing antioxidant power (FRAP) activity; details: for FRAP, Ascorbic acid equivalent, replicate 3: third replicate column
Procedure: The FRAP activity assay was performed to assess the reducing power ability to reduce ferric ions (Fe^3+) to ferrous ions (Fe^2+), following the established method described by Sekhon-Loodu and Rupasinghe. The FRAP reagent was freshly prepared by combining 300 mM acetate buffer pH 3.6, 10 mM 2,4,6- Tri(2-pyridyl)-s-triazine (TPTZ) dissolved in 40 mM HCl, and 20 mM FeCl3 in a ratio of 10:1:1. Ferrous sulfate (FeSO4) was used as a standard, with ascorbic acid serving as a control. The assay was conducted in a 96-well plate by mixing 20 μL of the sample, standard, or positive control with 80 μL of the FRAP solution. The mixture was then incubated for 20 minutes at room temperature, after which we measured absorbance at 595 nm using a microplate reader. The results were expressed as FRAP value, reported as ascorbic acid equivalent in μM (AAE, μM), providing a definitive measure of reducing power.

[5] = read-out: α-glucosidase inhibition (%), Mean, 31.2 μM
[6] = read-out: α-glucosidase inhibition (%), Mean, 62.5 μM
[7] = read-out: α-glucosidase inhibition (%), Mean, 125 μM
[8] = read-out: α-glucosidase inhibition (%), Mean, 250 μM
[9] = read-out: α-glucosidase inhibition (%), Mean, 500 μM
[10] = read-out: α-glucosidase inhibition (%), Mean, 1000 μM
[11] = read-out: α-glucosidase inhibition (%), Mean, 2000 μM
[12] = read-out: α-glucosidase inhibition (%), replicate 1, 31.2 μM, first replicate column
[13] = read-out: α-glucosidase inhibition (%), replicate 1, 62.5 μM, first replicate column
[14] = read-out: α-glucosidase inhibition (%), replicate 1, 125 μM, first replicate column
[15] = read-out: α-glucosidase inhibition (%), replicate 1, 250 μM, first replicate column
[16] = read-out: α-glucosidase inhibition (%), replicate 1, 500 μM, first replicate column
[17] = read-out: α-glucosidase inhibition (%), replicate 1, 1000 μM, first replicate column
[18] = read-out: α-glucosidase inhibition (%), replicate 1, 2000 μM, first replicate column
[19] = read-out: α-glucosidase inhibition (%), replicate 2, 31.2 μM, second replicate column
[20] = read-out: α-glucosidase inhibition (%), replicate 2, 62.5 μM, second replicate column
[21] = read-out: α-glucosidase inhibition (%), replicate 2, 125 μM, second replicate column
[22] = read-out: α-glucosidase inhibition (%), replicate 2, 250 μM, second replicate column
[23] = read-out: α-glucosidase inhibition (%), replicate 2, 500 μM, second replicate column
[24] = read-out: α-glucosidase inhibition (%), replicate 2, 1000 μM, second replicate column
[25] = read-out: α-glucosidase inhibition (%), replicate 2, 2000 μM, second replicate column
[26] = read-out: α-glucosidase inhibition (%), replicate 3, 31.2 μM, third replicate column
[27] = read-out: α-glucosidase inhibition (%), replicate 3, 62.5 μM, third replicate column
[28] = read-out: α-glucosidase inhibition (%), replicate 3, 125 μM, third replicate column
[29] = read-out: α-glucosidase inhibition (%), replicate 3, 250 μM, third replicate column
[30] = read-out: α-glucosidase inhibition (%), replicate 3, 500 μM, third replicate column
[31] = read-out: α-glucosidase inhibition (%), replicate 3, 1000 μM, third replicate column
[32] = read-out: α-glucosidase inhibition (%), replicate 3, 2000 μM, third replicate column

T1 sequence (P38158 whole entry): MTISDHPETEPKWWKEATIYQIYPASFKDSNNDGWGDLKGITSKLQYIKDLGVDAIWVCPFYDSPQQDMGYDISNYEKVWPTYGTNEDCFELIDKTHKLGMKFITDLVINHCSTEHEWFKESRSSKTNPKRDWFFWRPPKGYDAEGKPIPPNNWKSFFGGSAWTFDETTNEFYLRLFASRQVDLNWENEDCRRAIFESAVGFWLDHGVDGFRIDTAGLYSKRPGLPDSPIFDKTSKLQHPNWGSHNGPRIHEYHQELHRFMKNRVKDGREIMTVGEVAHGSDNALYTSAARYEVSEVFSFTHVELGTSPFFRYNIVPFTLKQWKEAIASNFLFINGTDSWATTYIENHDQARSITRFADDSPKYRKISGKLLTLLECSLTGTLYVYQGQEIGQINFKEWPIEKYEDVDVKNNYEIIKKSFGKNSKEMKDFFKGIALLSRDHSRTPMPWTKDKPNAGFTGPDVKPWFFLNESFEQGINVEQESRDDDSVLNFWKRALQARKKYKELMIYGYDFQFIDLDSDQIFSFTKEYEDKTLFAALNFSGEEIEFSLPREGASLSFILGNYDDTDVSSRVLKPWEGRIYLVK

| Structure (SMILES) | inhibition at 31.2 µM [1, 5] | inhibition at 62.5 µM [1, 6] | inhibition at 125 µM [1, 7] | inhibition at 250 µM [1, 8] | inhibition at 500 µM [1, 9] | inhibition at 1000 µM [1, 10] | inhibition at 2000 µM [1, 11] | inhibition at 31.2 µM [1, 12] | inhibition at 62.5 µM [1, 13] | inhibition at 125 µM [1, 14] | inhibition at 250 µM [1, 15] | inhibition at 500 µM [1, 16] | inhibition at 1000 µM [1, 17] | inhibition at 2000 µM [1, 18] | inhibition at 31.2 µM [1, 19] | inhibition at 62.5 µM [1, 20] | inhibition at 125 µM [1, 21] | inhibition at 250 µM [1, 22] | inhibition at 500 µM [1, 23] | inhibition at 1000 µM [1, 24] | further results |
| --- | --- | --- | --- | --- | --- | --- | --- | --- | --- | --- | --- | --- | --- | --- | --- | --- | --- | --- | --- | --- | --- |
| C[C@H]1O[C@H](O[C@H]2[C@H](O)[C@@H](O)[C@@H](O[C@H]3[C@H](O)[C@@H](O)C(O)O[C@@H]3CO)O[C@@H]2CO)[C@H](O)[C@@H](O)[C@@H]1N[C@H]1C=C(CO)[C@@H](O)[C@H](O)[C@H]1O (stereo partly shown) [Acarbose, acarbose] | 6.67% | 3.73% | 7.12% | 10.6% | 31.1% | 35.9% | 38.4% | 5.58% | 3.74% | 6.97% | 10.5% | 31.2% | 36% | 37.5% | 5.89% | 3.63% | 7.34% | 10.7% | 31.1% | 36.7% | α-glucosidase inhibition (%), Mean [1]: 38.3925%; inhibition at 2000 µM [1, 25]: 39.4%; inhibition at 31.2 µM [1, 26]: 8.54%; inhibition at 62.5 µM [1, 27]: 3.82%; inhibition at 125 µM [1, 28]: 7.06%; inhibition at 250 µM [1, 29]: 10.5%; inhibition at 500 µM [1, 30]: 31.1%; inhibition at 1000 µM [1, 31]: 34.8%; inhibition at 2000 µM [1, 32]: 38.3% |
| C=C1CC[C@@H]2[C@](C)(CO)[C@H](O)CC[C@@]2(C)[C@@H]1C/C=C1/C(=O)OC[C@H]1O [Andrographolide] | 0.0652% | -0.749% | 4.88% | 1.93% | 11.9% | 13.6% | 21.1% | -0.3% | 2.19% | 6.76% | -2.97% | 13.1% | 17.1% | 22.5% | 1.47% | 3.06% | 3.19% | 3.6% | 12% | 13.5% | % Inhibition (DPPH), replicate 1 [2]: 17.9296%; % DPPH Inhibition, Mean [2]: 14.4808%; % Inhibition (DPPH), replicate 2 [2]: 11.6610%; % Inhibition (DPPH), replicate 3 [2]: 13.8517%; α-glucosidase inhibition (%), Mean [1]: 21.1432%; IC50 ([1]; read-out: IC50 (α-glucosidase inhibitory activity)): > 2000 µM; inhibition at 2000 µM [1, 25]: 21%; inhibition at 31.2 µM [1, 26]: -0.976%; inhibition at 62.5 µM [1, 27]: -7.49%; inhibition at 125 µM [1, 28]: 5.68%; inhibition at 250 µM [1, 29]: 5.16%; inhibition at 500 µM [1, 30]: 10.6%; inhibition at 1000 µM [1, 31]: 11%; inhibition at 2000 µM [1, 32]: 19.9%; Kd ([3]; SPR steady-state affinity model, 25 °C, immobilized yeast α-glucosidase, read-out: dissociation constant (KD)): 137 ± 85.1 µM; FRAP, Ascorbic acid equivalent, replicate 3 ([4]; 500 μM): -2.0327 AAE, μM |
| C=C1CCC2C(C)(COC(C)=O)C(OC(C)=O)CCC2(C)C1CC(SC(=S)N1CCN(c2ccc(O)cc2)CC1)C1=CCOC1=O (stereo not shown) [compound 3f] | -0.49% | 5.53% | 15.2% | 26.6% | 56.3% | 78% | 81.9% | 3.15% | 5.24% | 19.1% | 28.2% | 59.3% | 78.6% | 81.9% | -1.2% | 7.4% | 17.6% | 28.1% | 57.1% | 78% | IC50 [2]: ~25 µM; % Inhibition (DPPH), replicate 1 [2]: 85.7465%; % DPPH Inhibition, Mean [2]: 84% and 84.47 ± 1.14% and 84.4719%; % Inhibition (DPPH), replicate 2 [2]: 83.5328%; % Inhibition (DPPH), replicate 3 [2]: 84.1364%; IC50 ([1]; IC50 (α-glucosidase inhibitory activity)): 411 µM and ~411 µM; inhibition at 2000 µM [1, 25]: 81.9%; inhibition at 31.2 µM [1, 26]: -3.42%; inhibition at 62.5 µM [1, 27]: 3.94%; inhibition at 125 µM [1, 28]: 8.93%; inhibition at 250 µM [1, 29]: 23.5%; inhibition at 500 µM [1, 30]: 52.6%; inhibition at 1000 µM [1, 31]: 77.3%; inhibition at 2000 µM [1, 32]: 82%; Kd [3]: 12.9 µM; fold stronger affinity than andrographolide ([3]; from SPR KD values): approximately 10 fold; FRAP, Ascorbic acid equivalent, replicate 1 ([4]; 500 μM, first replicate column): 109.9203 AAE, μM; FRAP, Ascorbic acid equivalent, replicate 2 ([4]; 500 μM, second replicate column): 87.9587 AAE, μM; FRAP, Ascorbic acid equivalent, replicate 3 ([4]; 500 μM): 67.0175 AAE, μM; FRAP activity ([4]; 600 μM): 253.90 ± 47.40 AAE |
| Cc1c(C)c2c(c(C)c1O)CC[C@@](C)(CCC[C@H](C)CCC[C@H](C)CCCC(C)C)O2 [α-tocopherol] |  |  |  |  |  |  |  |  |  |  |  |  |  |  |  |  |  |  |  |  | IC50 [2]: ~25 µM |
